The values that follow come from ChEMBL document CHEMBL3886716, “Methods of modulating the activity of the MC5 receptor and treatment of conditions related to this receptor” (2016).

The target of the assay is Melanocortin receptor 5 (Homo sapiens, UniProt P33032). Kind of assay: Radioligand Binding Assay: Assessments of compound binding to human MC5R (hMC5R)) by displacement of an 125I-labeled NDP-MSH receptor ligand peptide were performed essentially as described in the data sheets produced by Perkin Elmer to accompany their frozen hMC5R membranes (Perkin Elmer catalog number RBXMC5M400UA). [125I] NDP-MSH: Radiolabeled in House and Purified by HPLC: Na125I (0.5 mCi, 17.4 Ci/mg) was added to 50 μL sodium phosphate (50 mM, pH 7.4) in an eppendorf tube precoated with IODOGEN. After incubation for 10 mins the phosphate buffer containing the iodine was added to NDP-MSH (10 μl at 1 mg/mL) in a separate eppendorf tube. This was incubated for a further 10 mins. The iodinated NDP-MSH was purified by HPLC on a Zorbax SB 300 column using solvent A: 0.05% TFA and solvent B: 90% acetonitrile 0.045% TFA with a linear gradient, 0-67% B over 60 mins. The 125I NDP-MSH eluted at 52 mins after the unlabeled starting material (48 min) and was counted and stored in the freezer. […] Incubation buffer: 25 mM HEPES-KOH (pH 7.0), 1.5 mM CaCl2, 1 mM MgSO4, 0.1 M NaCl, 1 mM 1,10-phenanthroline, and 1 Complete™ protease inhibitor tablet/100 mL (Roche, catalog number 1873580). Perkin Elmer frozen hMC5 membranes: catalog number RBXMC5M400UA, 0.4 mL/vial; 400 microassays/vial, 0.78 mg/mL protein concentration. Vials of frozen membranes were thawed rapidly immediately before use, diluted with binding buffer and vortexed. Resuspended membranes were kept on ice until they were added to the wells of the plate. Assays were performed in 96 well polypropylene plates. […] This was incubated for 1 hr at 37° C.
Sequence of Melanocortin receptor 5 (P33032 whole entry): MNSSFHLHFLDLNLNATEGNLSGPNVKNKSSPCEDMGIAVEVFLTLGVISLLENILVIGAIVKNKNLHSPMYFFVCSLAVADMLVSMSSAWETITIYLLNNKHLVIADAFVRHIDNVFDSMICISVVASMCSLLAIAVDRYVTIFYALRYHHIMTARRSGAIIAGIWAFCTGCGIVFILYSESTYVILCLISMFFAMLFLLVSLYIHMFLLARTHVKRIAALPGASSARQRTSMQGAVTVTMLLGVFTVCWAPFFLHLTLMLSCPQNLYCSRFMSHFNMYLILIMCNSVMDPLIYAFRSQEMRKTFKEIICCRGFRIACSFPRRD
In general, IC50 refers to the concentration needed to halve the response being measured. In the case of `N=C(N)NCCC[C@@H]1N[C@H](CNC(=O)c2ccc3cc(O)ccc3c2)CCN(CC(c2ccccc2)c2ccccc2)C1=O`, the IC50 is under 100 nM.
With `O=C(/C=C/c1ccc(Cl)cc1)NC[C@@H]1CCN(CC(c2ccccc2)c2ccccc2)C(=O)[C@H](CC2CCCCC2)N1` the figure was under 1000 nM; with `N=C(N)NCCC[C@@H]1N[C@H](CNC(=O)c2cccc(Oc3ccccc3)c2)CCN(CC(c2ccccc2)c2ccccc2)C1=O`, under 100 nM; with `N=C(N)NCCC[C@@H]1N[C@H](CNC(=O)/C=C/c2ccc(Cl)cc2)CCN(CC(c2ccccc2)c2ccccc2)C1=O`, under 100 nM.
With `N=C(N)NCCC[C@@H]1N[C@H](CNC(=O)c2ccc3ccccc3c2)CCN(CCc2ccc(Cl)c(Cl)c2)C1=O` the figure was under 10000 nM; with `N=C(N)NCCC[C@@H]1N[C@H](CNC(=O)c2ccc(Oc3ccccc3)cc2)CCN(CC(c2ccccc2)c2ccccc2)C1=O`, under 1000 nM.
For `N=C(N)NCCC[C@@H]1N[C@H](CNC(=O)c2ccc3ccccc3c2)CCN(CCc2ccc(Cl)cc2Cl)C1=O`, the IC50 is under 1000 nM.
